In US6472541B2, “Protecting groups with increased photosensitivities” (The Regents of the University of California, priority 1998, dated 2002):
Counter-ions that a name gives are not always drawn. Marks after values point to notes of the source that are not given here.

Columns and labels:
[1] = Electronic absorption and emission properties; format: physicochemical
Procedure: Generally, chemicals and solvents were used directly as received unless otherwise noted. Acetonitrile, chloroform and dichloromethane were dried over 4A molecular sieves. Proton magnetic resonance spectra (^1H NMR) were recorded on a Gemini 200 MHz spectrometer (Varian; Palo Alto, Calif.) and reported in ppm (δ) downfield from tetramethylsilane with residual solvent peaks as the internal standards. Ultraviolet spectra were recorded on a Cary 3E UV-Visible spectrophotometer (Varian, Palo Alto, Calif., USA). Fluorescence spectra were recorded on a Fluorolog spectrofluorometer (SPEX; Edison, N.J., USA). Mass spectra were recorded on a electrospray mass spectrometer (5989B, Hewlett-Packard; Palo Alto, Calif., USA). Thin layer chromatography (TLC) and column chromatography were performed on precoated silica gel 60F-254 plates and 230-400 mesh silica gel 60 respectively (EM Separations; Gibbstown, N.J., USA). All manipulations of compounds sensitive to near ultraviolet light were performed under an orange safety lamp.
(§1) The electronic absorption and emission properties of the compounds were measured and the stability of the compounds toward hydrolysis in the dark was tested. Stability in the dark can be used to help identify photolabile protecting groups that can be used in a variety of different conditions. Specifically, the quantum efficiencies for one-photon excitation and rates of hydrolysis in the dark were determined.

[2] = One-photon photolysis quantum efficiency (UV irradiation, HPLC analysis); format: physicochemical; conditions: 365 nm
Procedure: as §1
[…] The duration of each irradiation period was controlled by an electronic shutter. Between each irradiation, a small aliquot (10 μL) of the solution was removed for analysis by reversed phase HPLC with a Betabasic-18 column eluted with a isocratic mixture of 60% acetonitrile and water containing 0.1% trifluoracetic acid at a flow rate of 0.8 mL/min, using absorbance detection at 325 nm. […] […] Quantum efficiencies were calculated as (Iσt90%)^−1, where I is the irradiation intensity in einsteins (cm^−2s^−1), σ is the decadic extinction coefficient in cm^2mol^−1 (10^3 times ε, the usual extinction coefficient in M^−1cm^−1), and t90% is the irradiation time in seconds for 90% conversion to product. […] Dark hydrolysis rates were measured similarly except without illumination.

rat cortical neurons = assay: One-photon UV uncaging of caged glutamate on brain slices, neuronal responses; format: cell-based; conditions: one-photon UV uncaging at 365 nm, 10 mW, average
Procedure: The photolabile protecting groups can be uncaged by one-photon or two-photon photolysis. One-photon ultraviolet uncaging experiments were carried out on brain slices. In particular, compound 7 was used to deliver glutamate to rat cortical neurons. One-photon UV uncaging of caged glutamate compound at 365 nm released the glutamate. Neuronal responses were measured after directly stimulating cells as described in Sawatari and Callaway, Nature 380:442-446 (1996). The cells were exposed to compound 7 (Bhc-Glu) or γ-(α-carboxy-2-nitrobenzyl)glutamate, trifluoroacetate salt (compound 1, CNB-glutamate). The one-photon uncaging was carried out as described in FIG. 1 depicts the lower power needed to uncage compound 7 (Bhc-Glu) in the neuron sample in comparison to compound 1 (alpha-carboxy nitrobenzyl-caged glutamate, CNB-Glu). At 10 mW the compound 7-stimulated neurons respond, on average, at amplitudes 80% of their maximum, while compound 1-stimulated neurons are responding at less than 20% of their maximum amplitudes.

[3] = In vitro measurements of two-photon uncaging and fluorescence cross-sections; format: physicochemical; conditions: pH 7.2
Procedure: Measurements of cross-sections for two-photon uncaging were carried out in microcuvettes with cylindrical cavities having a 1 cm path length and 20 μL total volume (Type 26F, Starna). Femtosecond infrared pulses from a mode-locked titanium-sapphire laser (Spectra-Physics TSUNAMI, pumped by a Spectra-Physics MILLENNIUM) were aimed along the axis of the sample chamber and focused in its center with a 25 mm focal length lens (06LXP003/076, Melles Griot, Irvine, Calif.) optimized for infrared lasers. The pulse parameters were estimated by replacing the caged compound by a solution of fluorescein, a reference compound of known fluorescence quantum yield Qf2 (0.9) and two-photon absorbance cross-section δaF (30 and 38 GM at 740 and 800 nm respectively). The time-averaged fluorescence <F(t)>collected by the detector is given by equation (1)
<F(t)>=0.5φQf2δaFCF<I0^2(t)>∫S^2(r)dV (1)
where φ is the collection efficiency of the detector, CF is the concentration of fluorescein, <I0^2(t)> is the mean squared light intensity, S(r) is a unitless spatial distribution function, and the integral is over the volume of the microcuvette. The fluorescence emitted at right angles to the laser beam was measured through a 535 nm bandpass filter in front of a silicon photodiode radiometer (IL1700, International Light). The collection efficiency φ was estimated as Ay/(4πR^2n^2), where A is the area of the detector (0.38 cm^2), y is the fraction of the integrated emission spectrum transmitted by the interference filter (0.377), measured separately in a spectrofluorometer, R is the distance from the center of the cuvette to the detector (3.83 cm), and n is the refractive index of water (1.333). For photolysis of a caged compound or substrate, the number NP of molecules of product formed per unit time is (eq. 2):
NP=0.5Qu2δaSCS<I0^2(t)>∫S^2(r)dV (2)
where Qu2, δaS, and CS are the quantum efficiency for two-photon uncaging, absorbance cross-section, and concentration of the substrate, respectively. NP was measured by HPLC sampling of the microcuvette as for the one-photon photolysis. The uncaging action cross-section δu2 (≡Qu2δaS) can therefore be estimated by (eq. 3): [formula]
Similarly, when the substrate is also fluorescent, its two-photon fluorescence action cross-section δf2S (≡Qf2SδaS) can be estimated as (eq. 4): [formula]
Here the subscripts S and F distinguish values for the substrate and for the fluorescein reference. If one assumes that one- and two-photon quantum efficiencies are the same, then δu2/Qu1 and δf2S/Qf1S should both equal δaS. In fact, the former values are typically about twice the latter. All of them are directly proportional to the assumed value of Qf2 for fluorescein.

[4] = Mechanism of photolysis (triplet state lifetime); format: physicochemical
From the text: The halogenated coumarin derivatives have good dark stability, and high one-photon and two-photon uncaging efficiencies. Without being bound to any particular theory, halogenation of the coumarin may have increased the two-photon cross-sections by lowering the pKa of the chromophore below physiological pH and promoting formation of the more strongly absorbing anion. Also, the heavy atoms may promote intersystem crossing to the triplet, which is believed to be the photochemically reactive state. […] The mechanism of photolysis of compound 7 and compound 23 indicate that the solvolysis occurs via the triplet state with a lifetime of about 1 μs. […] Although compound 6 had the highest cross-section, its photolysis was complicated by multiple secondary photoproducts. The monobromo compound (compound 5) was much more tractable and easily formed caged compounds.

brain slices = assay: Two-photon infrared uncaging on brain slices, whole-cell recordings
Procedure: A map was created where the brightness at each picture element was proportional to the maximum current recorded with the laser focused at that position.
Two-photon infrared uncaging on brain slices was also carried out. […] The stream of pulses from the Ti:sapphire laser was raster-scanned across cell bodies and dendrites.

[5] = In vitro measurements of two-photon uncaging and fluorescence cross-sections; format: physicochemical; conditions: measured at 780 nm on an independent apparatus

Row | Compound | ε Molar Absorptivity at 365 nm [1] | Qu1 Quantum efficiency for uncaging with one-photon excitation at 365 nm [2] | εQu1 One-photon action cross section (product of molar absorptivity and photolysis quantum yield) at 365 nm [2] [M⁻¹ cm⁻¹] | Neuron response amplitude, percent of maximum amplitude (rat cortical neurons) | Qf1 Quantum efficiency for fluorescence with one-photon excitation [1] | λem [1] [nm] | ε Molar Absorptivity at 400 nm ([1]; 400 nm) | λmax Wavelength of peak absorbance ([1]; pH 7.2) [nm] | ε Molar absorptivity at absorbance peak ([1]; pH 7.2, at absorbance peak) | δu (740 nm) uncaging action cross-section for two-photon excitation ([3]; 740 nm) | δu (800 nm) uncaging action cross-section for two-photon excitation ([3]; 800 nm) | Lifetime of triplet state through which solvolysis occurs [4] | Response to laser scans after application of caged compound (brain slices; Ti:sapphire laser raster-scanned across cell bodies and dendrites) | Entry into the cell (brain slices; photolysis map of neuron) | Change in holding current on application of caged compound (intrinsic agonist activity) (brain slices; whole-cell recordings, 15 cells, before photolysis) | δf fluorescence action cross-section for two-photon excitation [5]
1 | NC(CCC(=O)OC(C(=O)O)c1ccccc1[N+](=O)[O-])C(=O)O (stereo not drawn) [Compound 1, γ-(α-carboxy-2-nitrobenzyl)glutamate, trifluoroacetate salt, reference compound] | 180 M⁻¹ cm⁻¹ | 0.14 | 25 | less than 20% |  |  |  |  |  |  |  |  |  |  |  | 
2 | O=C(O)CC[C@H](NC(=O)OCc1cc(=O)oc2cc(O)c(Br)cc12)C(=O)O [Compound 7, N-(6-Bromo-7-hydroxycoumarin-4-yl)methoxycarbonyl glutamate] | 17,300 M^−1cm^−1 | 0.019 | 329 | 80% | 0.38 | 474 | 5,400 M^−1cm^−1 | 368 | 17,470 M^−1cm^−1 | 0.98 ± 10^−50 cm^4s/photon | 0.37 ± 10^−50 cm^4s/photon | about 1 μs | scans evoked inward currents | did not enter the cell | did not cause detectable changes in holding current | 2.2* 10^−50 cm^4s/photon
